In PubChem BioAssay AID2060487 (Molecular Pharmacology Branch, DTP, NCI, 2025):
Where “and” joins values, the source holds several entries; their conditions need not be identical. Identical values can stand only once.

System: 997537-175-T-J1-PDC complex spheroid viability
Test: Anticancer human tumor 997537-175-T-J1-PDC patient-derived colon adenocarcinoma cell line growth inhibition [GQUAD]
Conditions: for viability, T/C: stronger effect = lower value
Source text: DNA G-quadruplex Stabilizer Agents in Combinations in Complex Spheroids
A high-throughput screen of multi-cell type tumor spheroids was designed to identify active combinations of DNA G-quadruplex stabilizer agents and targeted small molecules. Complex spheroids include a stromal component modeled by human endothelial cells (HUVEC) and fibroblasts modeled by human mesenchymal stem cells (MSCs). The concentration ranges selected for each drug and investigational agent were based upon clinically achievable concentrations if the clinical Cmax of the agent was known.
Compounds. The drugs and investigational agents: pidnarulex (CX-5461; NSC782164), APTO-253 (NSC789042), BRACO-19 (NSC847499), peposertib (NSC802822), ceralasertib (NSC780249), elimusertib (NSC800525), camonsertib (NSC841442), AZD-1390 (NSC803789), olaparib (NSC753686), talazoparib (NSC767125), ART-558 (NSC835418), sotorasib (NSC818433), MRTX-1133 (NSC836407), SN-38 (NSC673596), topotecan (NSC609699), etoposide (NSC141540), doxorubicin (NSC123127), gemcitabine (NSC613327), 5-fluorouracil (NSC19893), paclitaxel (NSC125973), vemurafenib (NSC761431), panobinostat (NSC761190), R-306465 (JNJ-16241199; NSC773264), adavosertib (NSC754352), TP-3654 (NSC805149), carboplatin (NSC241240), KSQ-4279 (NSC840948), and staurosporine (NSC755774) were obtained from the National Cancer Institute (NCI) Developmental Therapeutics Program Chemical Repository (34). The FDA-approved anticancer drug set is available from the NCI Developmental Therapeutics Program. […] The stock solutions were prepared in dimethyl sulfoxide (DMSO, Sigma-Aldrich, St. Louis, MO, cat. D2650) at 800-fold the tested concentration and stored at -70 degrees C prior to their use. All drugs and investigational agents were tested over a range starting from a high concentration at or near the clinical Cmax and decreasing in half-log increments. If the clinical Cmax for an agent had not been determined, the highest concentration tested was 10 microM.
2.3 Cell Culture. All cells were maintained in an incubator at 37 degrees C and 5% CO2 with 95% humidity. The PDC lines were cultured according to standard operating procedures established by the NCI PDMR. All PDCs were thawed and cultured in Matrigel-coated flasks prepared with a working solution of 1X Ham's F-12 nutrient mix, without supplementation (Invitrogen, cat. 11765054), 100 U/mL penicillin-streptomycin (Invitrogen, cat. 15140122), and 2.5% Matrigel (Corning Inc., cat. 354248) for the first three passages. The 857933-349-R-J2-PDC line was cultured in 6C/Colon 1B media, which includes advanced DMEM/F-12 (Thermo Fisher Scientific, cat. 12634028), 10 mM HEPES (Thermo Fisher Scientific, cat. 15630080), 1X GlutaMAX supplement (Thermo Fisher Scientific, cat. 35050061), 0.1 mg/mL primocin (InvivoGen, cat. ant-pm-2), 10% defined fetal bovine serum, heat inactivated (HyClone Laboratories Inc., cat. SH30070.03HI), 50% L-WRN conditioned media (ATCC, cat. CRL-3276), 1.25 mM N-Acetyl-L-cysteine (Sigma-Aldrich, cat. A9165), 10 mM nicotinamide (Sigma-Aldrich, cat. N0636), 1X B-27 supplement (Thermo Fisher Scientific, cat. 17504044), 1X N-2 supplement (Thermo Fisher Scientific, cat. 17502048), 10 microM Y-27632 dihydrochloride (Tocris Bioscience, cat. 1254), and 50 ng/mL human EGF recombinant protein (Thermo Fisher Scientific, cat. PHG0311). The 485176-168-R4-J1-PDC line was cultured in Panc media, which includes all 6C/Colon 1B media components plus 100 ng/mL human FGF-10 (Thermo Fisher Scientific, cat. 100-26), 500 nM SB-431542 (Selleckchem, cat. S1067), and gastrin (Tocris, cat. 3006).
[…]

[1] = compound alone, run of 04/16/2024
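Also: spheroids exposed to the agents for 7 days.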
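For viability, T/C in this document: 100% = DMSO vehicle control viability.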

COc1cc(C2c3cc4c(cc3C(OC3OC5COC(C)OC5C(O)C3O)C3COC(=O)C23)OCO4)cc(OC)c1O (stereo unspecified)
viability, T/C (compound 0.0316 µM): 109% and 95.5% and 112%
viability, T/C (compound 0.1 µM): 89.4% and 75.1% and 76.9%
viability, T/C (compound 0.316 µM): 77.2% and 92.8% and 91.9%
viability, T/C (compound 1 µM): 93.1% and 76.8% and 89%
viability, T/C (compound 3.16 µM): 82.3% and 81.8% and 82.2%
viability, T/C (compound 10 µM): 60.9% and 54.7% and 74.6%
IC50 (curve of compound): > 10 µM

COc1ccc([C@@H](O)c2cc(-c3ncnc4cc(N5CCOCC5)ccc34)c(F)cc2Cl)nn1
viability, T/C (compound 0.0316 µM): 92.9% and 91.3% and 86%
viability, T/C (compound 0.1 µM): 90.2% and 89.7% and 104%
viability, T/C (compound 0.316 µM): 94.4% and 88.5% and 89.3%
viability, T/C (compound 1 µM): 101% and 83.3% and 91.5%
viability, T/C (compound 3.16 µM): 82.6% and 73.8% and 58.5%
viability, T/C (compound 10 µM): 65.1% and 78.9% and 67.7%
IC50 (curve of compound): > 10 µM

COc1cccc2c1C(=O)c1c(O)c3c(c(O)c1C2=O)CC(O)(C(=O)CO)CC3OC1CC(N)C(O)C(C)O1 (stereo unspecified)
viability, T/C (compound 0.0316 µM): 98.9% and 107% and 104%
viability, T/C (compound 0.1 µM): 95.5% and 101% and 75.2%
viability, T/C (compound 0.316 µM): 92.8% and 91.6% and 89.9%
viability, T/C (compound 1 µM): 99.9% and 88.3% and 107%
viability, T/C (compound 3.16 µM): 76.1% and 72.2% and 74.3%
viability, T/C (compound 10 µM): 51.4% and 40.7% and 23.7%
IC50 (curve of compound): > 10 µM and 7.16 µM and 5.5 µM

COc1ncnc(C2CC2)c1-c1ncc2cnn(Cc3ccc(-c4nc(C(F)(F)F)cn4C(C)C)cc3)c2n1
viability, T/C (compound 0.0316 µM): 108% and 102% and 88.2%
viability, T/C (compound 0.1 µM): 74.8% and 112% and 95%
viability, T/C (compound 0.316 µM): 108% and 90.8% and 83.2%
viability, T/C (compound 1 µM): 75.4% and 97.9% and 84.9%
viability, T/C (compound 3.16 µM): 82.6% and 103% and 75.4%
viability, T/C (compound 10 µM): 80.2% and 58% and 77.7%
IC50 (curve of compound): > 10 µM

Cc1[nH]c2ccc(F)cc2c1-c1nc2c3cccnc3c3ncccc3c2[nH]1
viability, T/C (compound 0.1 µM): 95.2% [middle of 12 runs]
viability, T/C (compound 0.316 µM): 98.8% [middle of 12 runs]
viability, T/C (compound 3.16 µM): 89.3% [middle of 12 runs]
IC50 [1]: > 10 µM
IC50 (compound alone, run of 04/22/2024): > 10 µM

Cc1[nH]c2ccccc2c1CCNCc1ccc(/C=C/C(=O)NO)cc1
viability, T/C (compound 0.000999 µM): 93.4% and 96.3% and 94.4%
viability, T/C (compound 0.00316 µM): 101% and 94.2% and 106%
viability, T/C (compound 0.00999 µM): 110% and 59.3% and 109%
viability, T/C (compound 0.0316 µM): 105% and 87.4% and 93.1%
viability, T/C (compound 0.0999 µM): 100% and 86.6% and 92.4%
viability, T/C (compound 0.316 µM): 87.6% and 50% and 52%
IC50 (curve of compound): > 0.316 µM and 0.316 µM

Cc1cccc(N(C)C(=O)C2C(O)CCN2c2nc(C)cc(C(F)(F)F)c2C#N)c1 (stereo unspecified)
viability, T/C (compound 0.0316 µM): 107% and 89.4% and 99.3%
viability, T/C (compound 0.1 µM): 97.1% and 94.8% and 91.9%
viability, T/C (compound 0.316 µM): 97% and 109% and 98%
viability, T/C (compound 1 µM): 88.5% and 83.3% and 100%
viability, T/C (compound 3.16 µM): 60.2% and 82.8% and 85.9%
viability, T/C (compound 10 µM): 89.4% and 74.4% and 90.4%
IC50 (curve of compound): > 10 µM

Cc1cnc(CNC(=O)c2c(=O)c3ccc(N4CCCN(C)CC4)nc3n3c2sc2ccccc23)cn1
viability, T/C (compound 0.1 µM): 95.7% [middle of 12 runs]
viability, T/C (compound 0.316 µM): 96.5% [middle of 12 runs]
viability, T/C (compound 1 µM): 103% [middle of 12 runs]
viability, T/C (compound 10 µM): 91.5% [middle of 12 runs]
IC50 [1]: > 10 µM

Cn1ncnc1[C@H]1c2n[nH]c(=O)c3cc(F)cc(c23)N[C@@H]1c1ccc(F)cc1
viability, T/C (compound 0.000999 µM): 91.9% and 91.2% and 104%
viability, T/C (compound 0.00316 µM): 89.7% and 92.9% and 86%
viability, T/C (compound 0.00999 µM): 107% and 90.8% and 92.9%
viability, T/C (compound 0.0316 µM): 72.1% and 87.1% and 89.7%
viability, T/C (compound 0.0999 µM): 90.8% and 64% and 84%
viability, T/C (compound 0.316 µM): 85.8% and 73.8% and 89%
IC50 (curve of compound): > 0.316 µM

Nc1ccn(C2OC(CO)C(O)C2(F)F)c(=O)n1 (stereo unspecified)
viability, T/C (compound 0.0316 µM): 103% (2×) and 99.3%
viability, T/C (compound 0.1 µM): 92.3% and 96% and 108%
viability, T/C (compound 0.316 µM): 93.5% and 99.5% and 101%
viability, T/C (compound 1 µM): 91.9% and 64.2% and 92.5%
viability, T/C (compound 3.16 µM): 88.4% and 55.3% and 62%
viability, T/C (compound 10 µM): 85.4% and 64.9% and 84.9%
IC50 (curve of compound): > 10 µM

O=C(NO)c1cnc(N2CCN(S(=O)(=O)c3ccc4ccccc4c3)CC2)nc1
viability, T/C (compound 0.0316 µM): 65.3% and 97.2% and 113%
viability, T/C (compound 0.1 µM): 24.7% and 95.1% and 86.5%
viability, T/C (compound 0.316 µM): 47.4% and 101% and 105%
viability, T/C (compound 1 µM): 41.2% and 82% and 69%
viability, T/C (compound 3.16 µM): 42.8% and 22.4% and 27.3%
viability, T/C (compound 10 µM): 23.3% and 0.34% and 0.28%

O=C(c1cc(Cc2n[nH]c(=O)c3ccccc23)ccc1F)N1CCN(C(=O)C2CC2)CC1
viability, T/C (compound 0.0316 µM): 106% and 94.3% and 90.2%
viability, T/C (compound 0.1 µM): 88% and 96.7% and 102%
viability, T/C (compound 0.316 µM): 94.6% and 102% and 107%
viability, T/C (compound 1 µM): 104% and 92.4% and 103%
viability, T/C (compound 3.16 µM): 102% and 64.4% and 79.6%
viability, T/C (compound 10 µM): 85.2% and 87.2% and 96.7%
IC50 (curve of compound): > 10 µM

O=c1[nH]cc(F)c(=O)[nH]1
viability, T/C (compound 0.0316 µM): 108% and 85.2% and 99.8%
viability, T/C (compound 0.1 µM): 104% and 108% and 86.2%
viability, T/C (compound 0.316 µM): 96.1% and 89% and 98.1%
viability, T/C (compound 1 µM): 95.1% and 85.5% and 92.2%
viability, T/C (compound 3.16 µM): 101% and 70.3% and 82.5%
viability, T/C (compound 10 µM): 83.9% and 87.2% and 93.6%
IC50 (curve of compound): > 10 µM
